According to paper PMC5614966, “Xanthates As Useful Probes for Testing the Active Sites of Cytochromes P450 4A11 and 2E1” (Frontiers in Pharmacology, 2017):

Experiments:
CYP4A11 = biological target: T1, CYP4A11 (Homo sapiens, UniProt Q02928); assay: inhibition of lauric acid omega-hydroxylation by CYP4A11 supersomes, HPLC-fluorescence, Lineweaver-Burk; type: biochemical
T1 sequence (Q02928 5-519): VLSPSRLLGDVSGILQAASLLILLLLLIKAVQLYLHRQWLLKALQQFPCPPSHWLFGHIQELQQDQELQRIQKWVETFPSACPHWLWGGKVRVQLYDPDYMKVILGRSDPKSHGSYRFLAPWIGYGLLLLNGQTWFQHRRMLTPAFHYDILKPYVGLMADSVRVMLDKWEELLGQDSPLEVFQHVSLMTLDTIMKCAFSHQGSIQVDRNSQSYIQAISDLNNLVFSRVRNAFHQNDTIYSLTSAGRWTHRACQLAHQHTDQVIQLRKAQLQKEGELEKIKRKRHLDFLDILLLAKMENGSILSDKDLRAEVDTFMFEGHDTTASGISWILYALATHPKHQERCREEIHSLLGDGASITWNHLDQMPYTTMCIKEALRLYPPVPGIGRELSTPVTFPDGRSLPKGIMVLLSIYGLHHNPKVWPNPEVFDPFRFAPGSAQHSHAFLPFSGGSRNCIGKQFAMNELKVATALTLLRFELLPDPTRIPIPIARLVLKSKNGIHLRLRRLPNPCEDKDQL

CYP2E1 = CYP2E1 (Oryctolagus cuniculus, UniProt P08682); assay: time- and concentration-dependent (mechanism-based) inactivation of 7-EFC O-deethylation, KI with kinact […] min^-1; type: biochemical; settings: read-out: KI_inact
CYP2E1, sequence (P08682 whole entry): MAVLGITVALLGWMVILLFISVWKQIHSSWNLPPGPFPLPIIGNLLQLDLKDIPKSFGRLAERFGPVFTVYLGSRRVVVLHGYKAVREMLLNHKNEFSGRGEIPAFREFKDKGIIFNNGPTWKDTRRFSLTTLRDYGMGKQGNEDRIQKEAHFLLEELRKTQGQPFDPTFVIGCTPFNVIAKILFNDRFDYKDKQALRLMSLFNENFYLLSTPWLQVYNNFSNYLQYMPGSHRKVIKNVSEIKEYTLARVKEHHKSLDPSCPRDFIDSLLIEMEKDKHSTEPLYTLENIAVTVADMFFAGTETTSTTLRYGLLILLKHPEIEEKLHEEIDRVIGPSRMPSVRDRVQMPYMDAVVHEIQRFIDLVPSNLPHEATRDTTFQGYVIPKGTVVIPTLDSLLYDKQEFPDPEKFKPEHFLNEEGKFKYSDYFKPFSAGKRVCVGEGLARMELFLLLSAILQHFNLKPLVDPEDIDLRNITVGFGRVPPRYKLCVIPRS

[1] = substrate: CCCCCCCCCCCC(=O)O; assay: Michaelis-Menten kinetics of omega-hydroxylation by CYP4A11 supersomes (Km); type: biochemical, Homo sapiens; settings: heme; NADPH

Molecule: CCCCCCCCCCCCOC(=S)S [C12, potassium O-dodecyl carbonodithioate]
- Ki (CYP4A11): 9 ± 1 µM
- KI (inactivation) (CYP2E1): 312 µM

B1: CYP4A11 (Homo sapiens) (protein)
chain: T1 sequence (Q02928 5-519)
- Km [1]: 11.8 µM
